Measured values published in patent US6660724B1, “Compounds and pharmaceutical compositions containing them” (Ilex Products, Inc., priority 1995, dated 2003).

Key:
Lp(a) = conditions: man, reported in the literature; cited from earlier work
[1] = high doses necessary for efficacy (4 g/day); cited from earlier work

| melting point | SMILES | effect on Lp(a) levels (Lp(a)) | serious side-effects [1] |
| --- | --- | --- | --- |
| – | O=C(O)c1cccnc1 [nicotinic acid] | lower Lp(a) | flushing, vasodilation and hepatotoxicity |
| 124 to 126 °C | CCOP(=O)(CNCc1ccnc(-c2cc(OC)c(O)c(OC)c2)c1)OCC | – | – |
| – | CC[C@H](C)C(=O)O[C@H]1C[C@@H](C)C=C2C=C[C@H](C)[C@H](CC[C@@H]3C[C@@H](O)CC(=O)O3)[C@H]21 [lovastatin] | do not affect Lp(a) levels | – |
| – | CC(C)(Sc1cc(C(C)(C)C)c(O)c(C(C)(C)C)c1)Sc1cc(C(C)(C)C)c(O)c(C(C)(C)C)c1 [probucol] | equally ineffective | – |
| 99 to 101 °C | CCOP(=O)(CNCc1cccnc1-c1cc(OC)c(O)c(OC)c1)OCC | – | – |
